Data as given in US20220249413A1, “SWELL 1 MODULATORS FOR TREATMENT OF NON-ALCOHOLIC FATTY LIVER DISEASE, IMMUNE DEFICIENCIES, MALE INFERTILITY AND VASCULAR DISEASES” (priority 2019, published 2022).

Assay: Metabolic phenotyping: fasting glucose, GTT, ITT
Format: in vivo, mouse
Text: Patients Human islets and adipocytes were obtained and cultured as described previously (Zhang et al., Nat Cell Biol, 19, 504-517, 2017; Kang et al., Nature Communications, 9, 367, 2018). The Patients involved in the study were anonymous and information such as gender, age, HbA1c, glucose levels and BMI only were available to the research team. The study was approved and carried out as per the guidelines of the University of Iowa Institutional Review Board (IRB). Animals All experimental procedures involving mice were approved by the Institutional Animal Care and Use Committee of the University of Iowa and Washington University at St. Louis. All C57BL/6 mice involved in study were purchased from Charles River Labs. Both KK.Cg-Ay/J (KKA^y) and KK.Cg-Aa/J (KKA^a) mice involved in study were gender and age-matched mice obtained from Jackson Labs (Stock No: 002468) and bred up for experiments. The mice were fed ad libitum with either regular chow (RC) or high-fat diet (Research Diets, Inc., 60 kcal % fat) with free access to water and housed in a light-, temperature- and humidity-controlled room. For high-fat diet (HFD) studies, only male mice were used and were started on HFD regimen at the age of 6-9 weeks. For all experiments involving KKA^y and KKA^a mice, both males and females were used at approximately 50/50 ratio. In all experiments involving mice, investigators were kept blinded both during the experiments and subsequent analysis. Smod1 (DCPIB) treatment Smod1 (DCPIB, Tocris, #D1540), was dissolved in Kolliphor® EL (Sigma, #C5135). Either vehicle (Kolliphor® EL) or Smod1 (5 mg/kg of body weight/day) were injected (intraperitoneal, i.p.) using 1 cc syringe/26G/[…] needle daily for 4-10 days, and in one experiment, daily for 8 weeks. Adenovirus Adenovirus type 5 with Ad5-RIP2-GFP (4.1×10^10 PFU/ml) and Ad5-CAG-LoxP-stop-LoxP-3× Flag-SWELL1 (1×10^10 PFU/ml) were obtained from Vector Biolabs. Adenovirus type 5 with Ad5-CMV-Cre-wt-IRES-eGFP (8×10^10 PFU/ml) was obtained from the University of Iowa Viral Vector Core. Cell culture Wildtype (WT) and SWELL1 knockout (KO) 3T3-F442A (Sigma-Aldrich) cells were cultured and differentiated as described previously (Zhang et al., Nat Cell Biol, 19, 504-517, 2017). Preadipocytes were maintained in 90% DMEM (25 mM D-Glucose and 4 mM L-Glutamine) containing 10% fetal bovine serum (FBS) and 100 IU penicillin and 100 μg/ml streptomycin on collagen-coated (rat tail type-I collagen, Corning) plates. Upon reaching confluency, the cells were differentiated in the above-mentioned media supplemented with 5 μg/ml insulin (Cell Applications) and replenished every other day with the differentiation media. For insulin signaling studies on WT and KO adipocytes with or without SWELL1 overexpression (O/E), the cells were differentiated for 10 days and transduced with Ad5-CAG-LoxP-stop-LoxP-3× Flag-SWELL1 virus (MOI 12) on day 11 in 2% FBS containing differentiation medium. To induce the overexpression, Ad5-CMV-Cre-wt-IRES-eGFP (MOI 12) was added on day 13 in 2% FBS containing differentiation medium. The cells were then switched to 10% FBS containing differentiation medium from day 15 to 17. On day 18, the cells were starved in serum free media for 6 h and stimulated with 0 and 10 nM insulin for either 5 or 15 min. Either Ad5-CAG-LoxP-stop-LoxP-3× Flag-SWELL1 or Ad5-CMV-Cre-wt-IRES-eGFP virus transduced cells alone were used as controls. Based on GFP fluorescence, viral transduction efficiency was ˜90%.
Electrophysiology Patch-clamp recordings of β-cells and mature adipocytes were performed as described previously (Zhang et al., Nat Cell Biol, 19, 504-517, 2017; Kang et al., Nature Communications, 9, 367, 2018). 3T3-F442A WT and KO preadipocytes were prepared as described in the Cell culture section above. […]

[1] = HFD-induced T2D mice and KKA^y model, 5 mg/kg i.p. 4-10 days
[2] = control KKA^a parental strain, 5 mg/kg x 4-10 days

For `CCCCC1(C2CCCC2)Cc2cc(OCCCC(=O)O)c(Cl)c(Cl)c2C1=O` (centres unmarked) [Smod1, 4-[(2-Butyl-6,7-dichloro-2-cyclopentyl-2,3-dihydro-1-oxo-1H-inden-5-yl)oxy]butanoic acid], the “random glucose 30 minutes after injection” value (HFD fed C57BL/6 mice, 5 mg/kg i.p., acute (FIG. 23)) was “no evidence of exacerbated hyperglycemia”, the “fasting glucose (FG)” value [1] was “normalized” and the “glucose tolerance (GTT)” value [1] was “normalized”. The “insulin-tolerance (ITT)” value [1] was “markedly improved”, the “glucose and insulin tolerance” value [2] was “nor does it alter glucose and insulin tolerance” and the hypoglycemia [2] was “does not cause hypoglycemia”. For the same compound, the “FG, GTT and ITT compared to vehicle” value (lean, non-T2D, glucose-tolerant mice) was “similar” and the “FG, GTT and ITT” value (re-treated after 16 weeks of HFD feeding, HFD-induced T2D mice) was “marked improvements”.
